This note sets out measurements from patent publication US8497283B2, “Autotaxin inhibitors” (Merck Patent GmbH, priority 2009, dated 2013).

The target in this experiment is T1, recombinant autotaxin (Homo sapiens, UniProt Q13822).
T1 construct: made in house; host or cells: Hi5 insect cells (baculovirus)
The experiment is described as follows: Autotaxin assay (Amplex Red fluorescence, LPC substrate). The class given is biochemical. The settings on record: for IC50: ten serial 1:3 dilutions starting at 30 μM, duplicates, 75 μM LPC, values given as upper bounds; for % CTRL (1E−05): percent of uninhibited control (100%) at 1E−05 M compound. As to the method:
Autotaxin activity is measured indirectly by means of Amplex Red Reagent. In this course, Amplex Red is measured as fluorogenic indicator for generated H2O2. Autotaxin converts substrate lysophosphatidylcholine (LPC) to phosphocholine and lysophosphatidylic acid (LPA). After the conversion phosphocholine is reacted with alkaline phosphatase to obtain inorganic phosphate and choline. During the next step choline is oxidized with choline oxidase to yield betaine, whereby H2O2 is generated. H2O2 reacts with Amplex Red Reagent in the presence of peroxidase (Horseradish peroxidase) in an 1:1 stochiometry and yields highly fluorescent resorufin. The generated fluorescence is measured in a reaction-dependent kinetic mode in order to enable subtraction of fluorescence signals of possible other fluorescent compounds that are not part of the reaction from total measured fluorescence.
1.5 μl of a standard solution or of the compounds of the invention are dissolved in 20 mM Hepes pH 7.2 with maximally 7.7% DMSO in individual concentrations. The resulting solution is pre-incubated together with 10 μl (16 ng) of highly purified recombinant autotaxin in a black 384-hole microtiter plate for 30 min at 22° C.
Thereafter, the reaction is started through the addition of 5 μl L-a-lysophosphatidyl-choline (LPC), whereby the final concentration of LPC is 75 μM. The mixture is incubated for 90 min. at 37° C. After the incubation Amplex Red Reagent, peroxidase (Horseradish peroxidase) and choline oxidase are added. The fluorescence is immediately measured at a wavelength of 612 nm with an excitation wavelength of 485 nm in a “Tecan Ultra multimode” fluorescence reader. The activity of autotaxin is indirectly calculated via the amount of detected generated H2O2.
For IC50 analysis, ten serial 1:3 dilutions starting at 30 μM for each compound were run in duplicates.
IC50 values were calculated on normalized data. For normalization, control wells were added to each assay plate and the signal of uninhibited control wells was set to 100%, whereas the signal inhibited by 500 μM C14 LPA, (Avanti Polar Lipids, Cat#857120P) was set to 0%. Curves were fitted and IC50 values calculated by the following model using proprietory analysis software: Y=Bottom+(100−Bottom)/(1+10^((Log IC50−X)*HillSlope))
Where X is the logarithm of concentration. Y is the response;
Y starts at Bottom and goes to Top with a sigmoid shape.
Protein: Recombinant autotaxin (baculoviral Hi5 expression)
Substrate: L-a-lysophosphatidyl choline (chicken egg); Avanti Polar Lipids #830071P
Standard: C14 LPA, Avanti Polar Lipids, Cat#857120P
Detection Reagent Amplex Red Reagent; Invitrogen #A12222; dissolved in 1.923 ml of DMSO peroxidase Type VI-A (horseradish), Sigma #P6782; dissolved in 7.45 ml of test buffer, Choline Oxidase; Sigma #C5896; dissolved in 2.47 ml test buffer
Detection Reagent Mix: 1:100 dilution of Amplex Red Regent in test buffer
Test buffer: 200 mM Tris-HCl, Merck, Cat #1.08219, pH 7.9; 0.1% BSA, lipid free, Roche Cat#775835

Usually IC50 stands for the concentration at which inhibition is half-maximal. As for `NC(=O)c1c(NC(=O)Cc2ccc(Cl)cc2F)sc2c1CCN(C(=O)Cc1ccncc1)C2` [Compound 23, 2-[2-(4-Chloro-2-fluoro-phenyl)-acetylamino]-6-(2-pyridin-4-yl-acetyl)-4,5,6,7-tetrahydro-thieno[2,3-c]pyridine-3-carboxylic acid amide], the IC50 was less than 10 µM.

`NC(=O)c1c(NC(=O)Cc2ccc(Cl)cc2F)sc2c1CCN(C(=O)CCc1ccccn1)C2` [Compound 24, 2-[2-(4-Chloro-2-fluoro-phenyl)-acetylamino]-6-(3-pyridin-2-yl-propionyl)-4,5,6,7-tetrahydro-thieno[2,3-c]pyridine-3-carboxylic acid amide]: the 50% inhibitory concentration (IC50) is less than 10 µM. On to `COC(=O)c1c(NC(=O)Nc2ccc(Cl)cc2)sc2c1CCN(C(=O)c1ccc3[nH]nnc3c1)C2` [Compound 25, 6-(1H-Benzotriazole-5-carbonyl)-2-[3-(4-chloro-phenyl)-ureido]-4,5,6,7-tetrahydro-thieno[2,3-c]pyridine-3-carboxylic acid methyl ester], for which the IC50 is less than 30 µM. Same read-out and setting: then `COC(=O)c1c(NC(=O)Nc2ccc(Cl)cc2)sc2c1CCN(C(=O)c1ccc3[nH]c(=O)oc3c1)C2` [Compound 26, 2-[3-(4-Chloro-phenyl)-ureido]-6-(2-oxo-2,3-dihydro-benzooxazole-6-carbonyl)-4,5,6,7-tetrahydro-thieno[2,3-c]pyridine-3-carboxylic acid methyl ester], with less than 10 µM. Regarding `O=C(Nc1ccc(Cl)cc1)Nc1sc2c(c1C(=O)N1CCCC1)CCN(C(=O)c1ccc3[nH]nnc3c1)C2` [Compound 27, 1-[6-(1H-Benzotriazole-5-carbonyl)-3-(pyrrolidine-1-carbonyl)-4,5,6,7-tetrahydro-thieno[2,3-c]pyridin-2-yl]-3-(4-chloro-phenyl)-urea], the “% CTRL (1E−05)” value is on record as 52%.

Consider `NC(=O)c1c(NC(=O)Nc2ccc(Cl)cc2)[nH]c2cc(C(=O)Nc3ccc4[nH]c(=O)oc4c3)ccc12` [Compound 28, 2-[3-(4-Chloro-phenyl)-ureido]-1H-indole-3,6-dicarboxylic acid 3-amide 6-[(2-oxo-2,3-dihydro-benzooxazol-6-yl)-amide]], for which the IC50 is less than 30 µM. As for `O=C(Cc1ccc(Cl)cc1F)Nc1nc2ccc(C(=O)Nc3ccc4[nH]c(=O)oc4c3)cc2s1` [Compound 29, 2-[2-(4-Chloro-2-fluoro-phenyl)-acetylamino]-benzothiazole-6-carboxylic acid (2-oxo-2,3-dihydro-benzooxazol-6-yl)-amide], the IC50 is less than 10 µM. For the compound `O=C(Nc1ccc(C(F)(F)F)cc1)Nc1nc2ccc(C(=O)Nc3ccc4[nH]c(=O)oc4c3)cc2s1` [Compound 30, 2-[3-(4-Trifluoromethyl-phenyl)-ureido]-benzothiazole-6-carboxylic acid (2-oxo-2,3-dihydro-benzooxazol-6-yl)-amide], the “% CTRL (1E−05)” value is 93%.

In the case of `O=C(Nc1ccc(Cl)cc1)Nc1nc2ccc(C(=O)Nc3ccc4[nH]c(=O)oc4c3)cc2s1` [Compound 31, 2-[3-(4-Chloro-phenyl)-ureido]-benzothiazole-6-carboxylic acid (2-oxo-2,3-dihydro-benzooxazol-6-yl)-amide], the “% CTRL (1E−05)” value is listed as 94%.

As for `O=C(Nc1ccc(C(F)(F)F)cc1)Nc1nc2ccc(C(=O)Nc3ccc4[nH]nnc4c3)cc2s1` [Compound 32, 2-[3-(4-Trifluoromethyl-phenyl)-ureido]-benzothiazole-6-carboxylic acid (1H-benzotriazol-5-yl)-amide], the “% CTRL (1E−05)” value was 64%.

Turning to `O=C(NCc1cc(Cl)cc(Cl)c1)c1[nH]nc2c1CCN(C(=O)c1ccc3[nH]nnc3c1)C2` [Compound 33, 6-(1H-Benzotriazole-5-carbonyl)-4,5,6,7-tetrahydro-2H-pyrazolo[3,4-c]pyridine-3-carboxylic acid 3,5-dichloro-benzylamide], the IC50 is less than 10 µM. Take `O=C(NCc1ccc(Cl)cc1)c1[nH]nc2c1CCN(C(=O)c1ccc3[nH]nnc3c1)C2` [Compound 34, 6-(1H-Benzotriazole-5-carbonyl)-4,5,6,7-tetrahydro-2H-pyrazolo[3,4-c]pyridine-3-carboxylic acid 4-chloro-benzylamide]: the concentration for half-maximal inhibition (IC50) is less than 10 µM. As for `CC(CNC(=O)c1[nH]nc2c1CCN(C(=O)c1ccc3[nH]nnc3c1)C2)c1ccc(Cl)cc1` (stereo not drawn) [Compound 35, 6-(1H-Benzotriazole-5-carbonyl)-4,5,6,7-tetrahydro-2H-pyrazolo[3,4-c]pyridine-3-carboxylic acid [2-(4-chloro-phenyl)-propyl]-amide], the IC50 was less than 10 µM. Take `O=C(NCc1cc(C(F)(F)F)ccc1F)c1[nH]nc2c1CCN(C(=O)c1ccc3[nH]nnc3c1)C2` [Compound 36, 6-(1H-Benzotriazole-5-carbonyl)-4,5,6,7-tetrahydro-2H-pyrazolo[3,4-c]pyridine-3-carboxylic acid 2-fluoro-5-trifluoromethyl-benzylamide]: the IC50 is less than 30 µM.

For the compound `O=C(NCCc1ccc(Cl)c(Cl)c1)c1[nH]nc2c1CCN(C(=O)c1ccc3[nH]nnc3c1)C2` [Compound 37, 6-(1H-Benzotriazole-5-carbonyl)-4,5,6,7-tetrahydro-2H-pyrazolo[3,4-c]pyridine-3-carboxylic acid [2-(3,4-dichloro-phenyl)-ethyl]-amide], the IC50 is less than 10 µM. Turning to `O=C(NCc1cc(Cl)ccc1Cl)c1[nH]nc2c1CCN(C(=O)c1ccc3[nH]nnc3c1)C2` [Compound 38, 6-(1H-Benzotriazole-5-carbonyl)-4,5,6,7-tetrahydro-2H-pyrazolo[3,4-c]pyridine-3-carboxylic acid 2,5-dichloro-benzylamide], the concentration for half-maximal inhibition (IC50) is less than 10 µM. As for `O=C(NCCc1ccc(Cl)cc1)c1[nH]nc2c1CCN(C(=O)c1ccc3[nH]nnc3c1)C2` [Compound 39, 6-(1H-Benzotriazole-5-carbonyl)-4,5,6,7-tetrahydro-2H-pyrazolo[3,4-c]pyridine-3-carboxylic acid [2-(4-chloro-phenyl)-ethyl]-amide], the IC50 was less than 1 µM. Regarding `O=C(NC(CO)Cc1ccc(Cl)cc1)c1[nH]nc2c1CCN(C(=O)c1ccc3[nH]nnc3c1)C2` (stereo not drawn) [Compound 40, 6-(1H-Benzotriazole-5-carbonyl)-4,5,6,7-tetrahydro-2H-pyrazolo[3,4-c]pyridine-3-carboxylic acid [2-(4-chloro-phenyl)-1-hydroxymethyl-ethyl]-amide], the “% CTRL (1E−05)” value is recorded as 73%. The same measure, in the same setting: then `COc1ccccc1CNC(=O)c1[nH]nc2c1CCN(C(=O)c1ccc3[nH]nnc3c1)C2` [Compound 41, 6-(1H-Benzotriazole-5-carbonyl)-4,5,6,7-tetrahydro-2H-pyrazolo[3,4-c]pyridine-3-carboxylic acid 2-methoxy-benzylamide], with 66%. For the compound `O=C(NCCc1cccc(Cl)c1)c1[nH]nc2c1CCN(C(=O)c1ccc3[nH]nnc3c1)C2` [Compound 42, 6-(1H-Benzotriazole-5-carbonyl)-4,5,6,7-tetrahydro-2H-pyrazolo[3,4-c]pyridine-3-carboxylic acid [2-(3-chloro-phenyl)-ethyl]-amide], the IC50 is less than 30 µM. Turning to `O=C(NCCc1ccc([N+](=O)[O-])cc1)c1[nH]nc2c1CCN(C(=O)c1ccc3[nH]nnc3c1)C2` [Compound 43, 6-(1H-Benzotriazole-5-carbonyl)-4,5,6,7-tetrahydro-2H-pyrazolo[3,4-c]pyridine-3-carboxylic acid [2-(4-nitro-phenyl)-ethyl]-amide], the concentration for half-maximal inhibition (IC50) is less than 10 µM.
